The values that follow come from PMC10620963, “Two-carbon tethered artemisinin–isatin hybrids: design, synthesis, anti-breast cancer potential, and in silico study” (Frontiers in Molecular Biosciences, 2023).

For series [1], the system named is MDA-MB-231/ADR (Adriamycin-resistant MDA-MB-231 cell line). Kind of series: MTT antiproliferative assay, MDA-MB-231/ADR. The settings on record: Homo sapiens, 24 h treatment, mean ± S.D., n = 3. The class given is cell-based. How it is done: (§1) The antiproliferative activity and cytotoxicity of ART–isatin hybrids 4a–k against MCF-7 (CL-0149, purchased from Procell), MDA-MB-231 (CL-0150A, purchased from Procell), and MDA-MB-231/ADR (AC337895, purchased from CASMART) breast cancer cell lines, as well as MCF-10A (CL-0525, purchased from Procell), were assessed by the 3-(4,5-dimethylthiazol-2-yl)-2,5-diphenyltetrazolium bromide (MTT) assay. ART, DHA, and Adriamycin (ADR) were used as positive controls. The selectivity index (SI: IC50(MCF-10A)/IC50(MCF-7)) and resistance index (RI: IC50(MDA-MB-231/ADR)/IC50(MDA-MB-231)) are presented in Table 3.
(§2) MCF-7, MDA-MB-231 and MDA-MB-231/ADR breast cancer cells (2×10^3) were plated in each well of a 96-well plate and were allowed to adhere and spread for 24 h. Cells were treated with a range of different concentrations of ART-isatin hybrids 4a-k (1, 5, 10, 20, 50, 100 µM) and reference drugs artemisinin, dihydroartemisinin, and adriamycin (1, 5, 10, 20, 50, 100 µM) and were cultured for 24 h at 37 °C. 3-(4,5-dimethyl-2-thiazolyl)-2,5-diphenyltetrazolium bromide (MTT) solution (10 µL) was added to each well, and the cultures were incubated for an additional 4 h. A further 100 µL of […] was added and incubation continued overnight. The absorbance was read at 540 nm in EnSpire, multimode reader and IC50 concentration was calculated and indicated as means SD of three in-dependent experiments. The percentage relative cell viability was determined according to the following formula: Percentage cell viability = A at 570 nm of treated samples/A at 570 nm of untreated samples × 100.
(§3) The statistical analysis was performed using Excel © and IC50 values were estimated using GraphpadPrism5 software (Hearne Scientific Software). The experiments were performed in duplicate and the statistical significance was calculated using the student’s t-test. A p-value of less than 0.05 was used to estimate the significance of the observations. A Z-factor was calculated for each 96-well plate and assays having Z-factor above 0.05 were included in the statistical analysis.
On the technique in general: Formazan colour is commonly taken as a measure of viable cells.

For series [2], the system named is MDA-MB-231 breast cancer cell line. Nature of the series: MTT antiproliferative assay, MDA-MB-231. The class given is cell-based. The conditions noted are these: Homo sapiens, 24 h treatment, mean ± S.D., n = 3. The protocol:
as §1, §2, §3

Series [3] has as its system MCF-7 breast cancer cell line. Nature of the series: MTT antiproliferative assay, MCF-7. The class given is cell-based, human. The settings on record: for IC50: Homo sapiens, MCF7, MTT, 24 h treatment, mean ± S.D., n = 3. How it is done: as §1, §2, §3
Series [4] can be described thus: MTT cytotoxicity assay, MCF-10A. Format: cell-based. The conditions noted are these: human, MCF-10A normal breast cells, 72 h exposure. How it is done: as §1
The cytotoxicity (CC50) of ART-isatin hybrids 4a-k and reference drugs artemisinin, dihydroartemisinin, and adriamycin were examined by the MTT assay in MCF-10A cells. The compounds were dissolved in DMSO with different concentrations. The MCF-10A cells were maintained in culture medium at 37 °C under 5% CO2 atmosphere. Cells were seeded in 96-well plates (1×10^4 cell per well) and allowed to recover for 24 h. After 72 h of exposure, cells were harvested, and cell viability was assessed by MTT assay.
as §3

Series [5] deals with MCF-7, MDA-MB-231, and MDA-MB-231/ADR breast cancer cell lines. Kind of series: MTT antiproliferative assay, span over the three breast cancer cell lines. The class given is cell-based. The conditions noted are these: Homo sapiens; span over MCF-7, MDA-MB-231, MDA-MB-231/ADR; read-out: IC50 range against the three tested breast cancer cell lines. How it is done: as §1
MCF-7, MDA-MB-231 and MDA-MB-231/ADR breast cancer cells (2×10^3) were plated in each well of a 96-well plate and were allowed to adhere and spread for 24 h. […] The absorbance was read at 540 nm in EnSpire, multimode reader and IC50 concentration was calculated and indicated as means SD of three in-dependent experiments. The percentage relative cell viability was determined according to the following formula: Percentage cell viability = A at 570 nm of treated samples/A at 570 nm of untreated samples × 100.
The statistical analysis was performed using Excel © and IC50 values were estimated using GraphpadPrism5 software (Hearne Scientific Software). The experiments were performed in duplicate and the statistical significance was calculated using the student’s t-test. […]

On to `CON=C1C(=O)N(CCOC2O[C@@H]3O[C@@]4(C)CC[C@H]5[C@H](C)CC[C@@H]([C@H]2C)[C@@]35OO4)c2ccccc21` (stereo partly drawn) [Hybrid 4d, 3-(methoxyimino)-1-(2-(((3R,5aS,6R,8aS,9R,12R,12aR)-3,6,9-trimethyldecahydro-12H-3,12-epoxy[1,2]dioxepino[4,3-i]isochromen-10-yl)oxy)ethyl)indolin-2-one], for which the IC50 in series [1] is 19.7 ± 1.2 µM; in series [2] it was 16.2 ± 1.8 µM; in series [3], 28.5 ± 2.3 µM. In addition, in series [3], the “SI, selectivity index, IC50(MCF-10A)/IC50(MCF-7)” value (shortened to “SI, selectivity index”) is on record as greater than 3.5. For the same molecule, the 50% inhibitory concentration (IC50) at 72 h in series [4] is greater than 100 µM.
Consider `C[C@@H]1CC[C@H]2[C@@H](C)C(OCCN3C(=O)C(=O)c4ccccc43)O[C@@H]3O[C@@]4(C)CC[C@@H]1[C@]32OO4` (stereo partly drawn) [Hybrid 4a, 1-(2-(((3R,5aS,6R,8aS,9R,12R,12aR)-3,6,9-trimethyldecahydro-12H-3,12-epoxy[1,2]dioxepino[4,3-i]isochromen-10-yl)oxy)ethyl)indoline-2,3-dione], for which the IC50 in series [1] was 2.49 ± 0.1 µM; in series [2], 3.83 ± 0.1 µM; in series [3], 12.6 ± 2.1 µM; in series [5], 2.49 to 12.6 µM. Also, the “SI, selectivity index” value in series [3] is given as greater than 7.9. In addition, the half-maximal inhibitory concentration (IC50) at 72 h in series [4] was greater than 100 µM.
Consider `C[C@@H]1CC[C@H]2[C@@H](C)C(OCCN3C(=O)C(=NOCc4ccccc4)c4cc(F)ccc43)O[C@@H]3O[C@@]4(C)CC[C@@H]1[C@]32OO4` (stereo partly drawn) [Hybrid 4j, 3-((benzyloxy)imino)-5-fluoro-1-(2-(((3R,5aS,6R,8aS,9R,12R,12aR)-3,6,9-trimethyldecahydro-12H-3,12-epoxy[1,2]dioxepino[4,3-i]isochromen-10-yl)oxy)ethyl)indolin-2-one], for which the IC50 in series [1], in series [2] and in series [3] was greater than 100 µM throughout. The IC50 at 72 h in series [4] is greater than 100 µM.
For the molecule `C[C@@H]1CC[C@H]2[C@@H](C)C(OCCN3C(=O)C(=O)c4cc(F)ccc43)O[C@@H]3O[C@@]4(C)CC[C@@H]1[C@]32OO4` (stereo partly drawn) [Hybrid 4b, 5-fluoro-1-(2-(((3R,5aS,6R,8aS,9R,12R,12aR)-3,6,9-trimethyldecahydro-12H-3,12-epoxy[1,2]dioxepino[4,3-i]isochromen-10-yl)oxy)ethyl)indoline-2,3-dione], the IC50 in series [1] amounted to 21.4 ± 3.1 µM; in series [2], 18.6 ± 1.5 µM; in series [3] it was 26.7 ± 2.4 µM. The “SI, selectivity index” value in series [3] was greater than 3.7. This molecule displayed an IC50 at 72 h in series [4] greater than 100 µM.
In the same order, the values of `CO/N=C1/C(=O)N(CCOC2O[C@@H]3O[C@@]4(C)CC[C@H]5[C@H](C)CC[C@@H]([C@H]2C)[C@@]35OO4)c2ccc(F)cc21` (stereo partly drawn) [Hybrid 4e, (E)-5-fluoro-3-(methoxyimino)-1-(2-(((3R,5aS,6R,8aS,9R,12R,12aR)-3,6,9-trimethyldecahydro-12H-3,12-epoxy[1,2]dioxepino[4,3-i]isochromen-10-yl)oxy)ethyl)indolin-2-one] are 64.7 ± 4.9 µM, 49.6 ± 3.8 µM, 73.3 ± 5.6 µM, greater than 1.3 and greater than 100 µM.
With `CCON=C1C(=O)N(CCOC2O[C@@H]3O[C@@]4(C)CC[C@H]5[C@H](C)CC[C@@H]([C@H]2C)[C@@]35OO4)c2ccccc21` (stereo partly drawn) [Hybrid 4g, 3-(ethoxyimino)-1-(2-(((3R,5aS,6R,8aS,9R,12R,12aR)-3,6,9-trimethyldecahydro-12H-3,12-epoxy[1,2]dioxepino[4,3-i]isochromen-10-yl)oxy)ethyl)indolin-2-one], the 50% inhibitory concentration (IC50) in series [1] came out at 28.4 ± 2.1 µM; in series [2] it was 37.6 ± 2.4 µM; in series [3], 48.2 ± 3.7 µM. Further, the “SI, selectivity index” value in series [3] is reported as greater than 2.0. The IC50 at 72 h in series [4] was greater than 100 µM.
Take `COc1ccc2c(c1)C(=O)C(=O)N2CCOC1O[C@@H]2O[C@@]3(C)CC[C@H]4[C@H](C)CC[C@@H]([C@H]1C)[C@@]24OO3` (stereo partly drawn) [Hybrid 4c, 5-methoxy-1-(2-(((3R,5aS,6R,8aS,9R,12R,12aR)-3,6,9-trimethyldecahydro-12H-3,12-epoxy[1,2]dioxepino[4,3-i]isochromen-10-yl)oxy)ethyl)indoline-2,3-dione]: the figures for the IC50 in series [1], in series [2] and in series [3] were 25.1 ± 1.9 µM, 27 ± 2.2 µM and 33.8 ± 3.2 µM, respectively. The “SI, selectivity index” value in series [3] was greater than 2.9. The molecule further had an IC50 at 72 h in series [4] greater than 100 µM.
`C[C@H]1[C@@H](O)O[C@@H]2O[C@@]3(C)CC[C@H]4[C@H](C)CC[C@@H]1[C@@]24OO3` [DHA, dihydroartemisinin, reference compound]: the IC50 in series [1] is 82.8 ± 6.8 µM; in series [2], 69.6 ± 4.7 µM; in series [3], 73.2 ± 5.9 µM; in series [5], 69.6 to 89.8 µM. For the same molecule, the “SI, selectivity index” value in series [3] is recorded as greater than 1.3. In addition, the half-inhibitory concentration (IC50) at 72 h in series [4] is greater than 100 µM.
Regarding `CON=C1C(=O)N(CCOC2O[C@@H]3O[C@@]4(C)CC[C@H]5[C@H](C)CC[C@@H]([C@H]2C)[C@@]35OO4)c2ccc(OC)cc21` (stereo partly drawn) [Hybrid 4f, 5-methoxy-3-(methoxyimino)-1-(2-(((3R,5aS,6R,8aS,9R,12R,12aR)-3,6,9-trimethyldecahydro-12H-3,12-epoxy[1,2]dioxepino[4,3-i]isochromen-10-yl)oxy)ethyl)indolin-2-one], the 50% inhibitory concentration (IC50) in series [1] came to 33.8 ± 3 µM; in series [2], 20.4 ± 1.7 µM; in series [3] it was 37.9 ± 3.3 µM. Besides, the “SI, selectivity index” value in series [3] is greater than 2.6. This molecule also came in with an IC50 at 72 h in series [4] greater than 100 µM.
`CCON=C1C(=O)N(CCOC2O[C@@H]3O[C@@]4(C)CC[C@H]5[C@H](C)CC[C@@H]([C@H]2C)[C@@]35OO4)c2ccc(OC)cc21` (stereo partly drawn) [Hybrid 4i, 3-(ethoxyimino)-5-methoxy-1-(2-(((3R,5aS,6R,8aS,9R,12R,12aR)-3,6,9-trimethyldecahydro-12H-3,12-epoxy[1,2]dioxepino[4,3-i]isochromen-10-yl)oxy)ethyl)indolin-2-one]: the 50% inhibitory concentration (IC50) in series [1] came out at 52.2 ± 3.6 µM; in series [2], 50.1 ± 4.2 µM; in series [3] it was 70.8 ± 5.9 µM. Also, the “SI, selectivity index” value in series [3] is recorded as greater than 1.4. In series [4], this molecule came in with an IC50 at 72 h greater than 100 µM.
For the molecule `C[C@@H]1CC[C@H]2[C@@H](C)C(=O)O[C@@H]3O[C@@]4(C)CC[C@@H]1[C@]32OO4` [ART, artemisinin], the figures for the IC50 in series [1], in series [2] and in series [3] were greater than 100 µM, 72.4 ± 5.3 µM and 87.6 ± 6.6 µM, respectively. For the same molecule, in series [3], the “SI, selectivity index” value is greater than 1.1. Further, the IC50 at 72 h in series [4] is greater than 100 µM.
For the molecule `CCON=C1C(=O)N(CCOC2O[C@@H]3O[C@@]4(C)CC[C@H]5[C@H](C)CC[C@@H]([C@H]2C)[C@@]35OO4)c2ccc(F)cc21` (stereo partly drawn) [Hybrid 4h, 3-(ethoxyimino)-5-fluoro-1-(2-(((3R,5aS,6R,8aS,9R,12R,12aR)-3,6,9-trimethyldecahydro-12H-3,12-epoxy[1,2]dioxepino[4,3-i]isochromen-10-yl)oxy)ethyl)indolin-2-one], the 50% inhibitory concentration (IC50) in series [1] is 59.9 ± 4.4 µM; in series [2], 46.5 ± 3.9 µM; in series [3] it was 68.3 ± 5.2 µM. Moreover, the “SI, selectivity index” value in series [3] is greater than 1.4. The molecule also showed an IC50 at 72 h in series [4] greater than 100 µM.
With `COc1cccc2c1C(=O)c1c(O)c3c(c(O)c1C2=O)C[C@@](O)(C(=O)CO)C[C@@H]3O[C@H]1C[C@H](N)[C@H](O)[C@H](C)O1` [ADR, Adriamycin, reference compound], the figures for the IC50 in series [1], in series [2] and in series [3] were greater than 100 µM, 4.46 ± 0.1 µM and 18.9 ± 1.2 µM, respectively. Also, the “SI, selectivity index” value in series [3] turned out to be 3.6. This molecule registered an IC50 at 72 h in series [4] of 68.8 µM.
`COc1ccc2c(c1)/C(=N\OCc1ccccc1)C(=O)N2CCOC1O[C@@H]2O[C@@]3(C)CC[C@H]4[C@H](C)CC[C@@H]([C@H]1C)[C@@]24OO3` (stereo partly drawn) [Hybrid 4k, (E)-3-((benzyloxy)imino)-5-methoxy-1-(2-(((3R,5aS,6R,8aS,9R,12R,12aR)-3,6,9-trimethyldecahydro-12H-3,12-epoxy[1,2]dioxepino[4,3-i]isochromen-10-yl)oxy)ethyl)indolin-2-one]: the IC50 in series [1], in series [2] and in series [3] was greater than 100 µM each time. Moreover, the concentration for half-maximal inhibition (IC50) at 72 h in series [4] was greater than 100 µM.

A word on the IC50: it is the point on the concentration scale where inhibition reaches its midpoint.
